Measured values published in ChEMBL document CHEMBL4725278, “New coumarin/sulfocoumarin linked phenylacrylamides as selective transmembrane carbonic anhydrase inhibitors: Synthesis and in-vitro biological evaluation” (Bioorg Med Chem, 2020).

Experiments:
Carbonic anhydrase 1 = Carbonic anhydrase 1 (Homo sapiens, UniProt P00915); assay: Inhibition of recombinant human carbonic anhydrase 1 assessed as inhibition constant preincubated with enzyme for 10 mins by phenol red dye based stopped flow CO2 hydration assay
Chain of Carbonic anhydrase 1 (P00915 whole entry): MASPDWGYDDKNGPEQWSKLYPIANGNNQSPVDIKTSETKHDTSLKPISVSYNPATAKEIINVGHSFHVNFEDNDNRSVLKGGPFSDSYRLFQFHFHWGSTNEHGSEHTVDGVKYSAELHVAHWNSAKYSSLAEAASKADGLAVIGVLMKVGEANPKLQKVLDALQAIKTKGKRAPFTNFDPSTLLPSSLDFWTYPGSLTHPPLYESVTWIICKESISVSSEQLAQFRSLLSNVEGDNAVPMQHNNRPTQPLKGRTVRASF

Carbonic anhydrase 2 = Carbonic anhydrase 2 (Homo sapiens, UniProt P00918); assay: Inhibition of recombinant human carbonic anhydrase 2 assessed as inhibition constant preincubated with enzyme for 10 mins by phenol red dye based stopped flow CO2 hydration assay
Carbonic anhydrase 9 = Carbonic anhydrase 9 (Homo sapiens, UniProt Q16790); assay: Inhibition of recombinant human carbonic anhydrase 9 assessed as inhibition constant preincubated with enzyme for 10 mins by phenol red dye based stopped flow CO2 hydration assay
Carbonic anhydrase 12 = Carbonic anhydrase 12 (Homo sapiens, UniProt O43570); assay: Inhibition of recombinant human carbonic anhydrase 12 assessed as inhibition constant preincubated with enzyme for 10 mins by phenol red dye based stopped flow CO2 hydration assay
Chain of Carbonic anhydrase 12 (O43570 whole entry): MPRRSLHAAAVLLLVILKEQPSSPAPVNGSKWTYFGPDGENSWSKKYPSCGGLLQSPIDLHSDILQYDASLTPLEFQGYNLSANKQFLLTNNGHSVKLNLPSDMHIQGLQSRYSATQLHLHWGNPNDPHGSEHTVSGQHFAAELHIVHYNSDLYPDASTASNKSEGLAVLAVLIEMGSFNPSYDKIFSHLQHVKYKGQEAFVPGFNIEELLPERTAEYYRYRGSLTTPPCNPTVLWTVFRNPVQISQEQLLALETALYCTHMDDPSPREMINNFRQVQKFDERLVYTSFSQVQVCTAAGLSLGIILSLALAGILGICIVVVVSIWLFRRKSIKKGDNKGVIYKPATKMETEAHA

Ki (Carbonic anhydrase 1) | Ki (Carbonic anhydrase 2) | Ki (Carbonic anhydrase 9) | Ki (Carbonic anhydrase 12) | Compound
> 10000 nM | > 10000 nM | 884 nM | 427 nM | COc1ccc(/C=C/C(=O)Nc2ccc3oc(=O)ccc3c2)cc1
> 10000 nM | > 10000 nM | 3040 nM | 644 nM | COc1ccc(/C=C/C(=O)Nc2ccc3c(C)cc(=O)oc3c2)cc1OC
> 10000 nM | > 10000 nM | 488 nM | 567 nM | Cc1cc(=O)oc2cc(NC(=O)/C=C/c3ccccc3OC(F)F)ccc12
> 10000 nM | > 10000 nM | 472 nM | 137 nM | COc1ccc(/C=C/C(=O)Nc2ccc3oc(=O)ccc3c2)c(F)c1
> 10000 nM | > 10000 nM | 639 nM | 539 nM | Cc1cc(=O)oc2cc(NC(=O)/C=C/c3cccc(F)c3)ccc12
> 10000 nM | > 10000 nM | 881 nM | 760 nM | N#Cc1ccc(/C=C/C(=O)Nc2ccc3oc(=O)ccc3c2)cc1
 |  | 6 nM |  | NS(=O)(=O)c1ccc(NC(=O)/C=C/c2ccccc2OC(F)F)cc1
> 10000 nM | > 10000 nM | 321 nM | 15.5 nM | COc1ccc(/C=C/C(=O)Nc2ccc3oc(=O)ccc3c2)cc1OC
> 10000 nM | > 10000 nM | 647 nM | 631 nM | COc1cc(/C=C/C(=O)Nc2ccc3c(C)cc(=O)oc3c2)cc(OC)c1OC
> 10000 nM | > 10000 nM | 7210 nM | 557 nM | O=C(/C=C/c1cccc([N+](=O)[O-])c1)Nc1ccc2oc(=O)ccc2c1
> 10000 nM | > 10000 nM | 854 nM | 575 nM | Cc1cc(=O)oc2cc(NC(=O)/C=C/c3ccc(C#N)cc3)ccc12
> 10000 nM | > 10000 nM | 340 nM | 206 nM | O=C(/C=C/c1ccc(F)c(F)c1)Nc1ccc2oc(=O)ccc2c1
> 10000 nM | > 10000 nM | 88.9 nM | 343 nM | O=C(/C=C/c1ccc(Cl)cc1)Nc1ccc2oc(=O)ccc2c1
> 10000 nM | > 10000 nM | 773 nM | 699 nM | Cc1cc(=O)oc2cc(NC(=O)/C=C/c3ccc(F)c(F)c3)ccc12
> 10000 nM | > 10000 nM | 131 nM | 829 nM | O=C(/C=C/c1ccccc1)Nc1ccc2oc(=O)ccc2c1
> 10000 nM | > 10000 nM | 39.8 nM | 520 nM | N#Cc1ccc(/C=C/C(=O)Nc2ccc3c(c2)C=CS(=O)(=O)O3)cc1
> 10000 nM | > 10000 nM | 40.9 nM | 265 nM | O=C(/C=C/c1ccc(F)cc1)Nc1ccc2oc(=O)ccc2c1

Ki (Carbonic anhydrase 1) | Ki (Carbonic anhydrase 2) | Ki (Carbonic anhydrase 9) | Ki (Carbonic anhydrase 12) | Compound
> 10000 nM | > 10000 nM | 517 nM | 506 nM | O=C(/C=C/c1ccc(F)cc1)Nc1ccc2c(c1)C=CS(=O)(=O)O2
> 10000 nM | > 10000 nM | 536 nM | 208 nM | COc1cc(/C=C/C(=O)Nc2ccc3c(c2)C=CS(=O)(=O)O3)cc(OC)c1OC
> 10000 nM | > 10000 nM | 91.1 nM | 236 nM | O=C(/C=C/c1ccc(C(F)(F)F)cc1)Nc1ccc2oc(=O)ccc2c1
> 10000 nM | > 10000 nM | 817 nM | 847 nM | COc1ccc(/C=C/C(=O)Nc2ccc3c(C)cc(=O)oc3c2)c(F)c1
> 10000 nM | > 10000 nM | 720 nM | 568 nM | O=C(/C=C/c1ccc(F)c(F)c1)Nc1ccc2c(c1)C=CS(=O)(=O)O2
> 10000 nM | > 10000 nM | 305 nM | 701 nM | O=C(/C=C/c1cc(Cl)cc(Cl)c1)Nc1ccc2oc(=O)ccc2c1
> 10000 nM | > 10000 nM | 157 nM | 149 nM | COc1cc(/C=C/C(=O)Nc2ccc3oc(=O)ccc3c2)cc(OC)c1OC
 |  | 20.2 nM | 1.8 nM | Cc1cc(=O)oc2cc(NC(=O)NS(=O)(=O)c3ccc(F)cc3)ccc12
> 10000 nM | > 10000 nM | 92.8 nM | 349 nM | O=C(/C=C/c1ccccc1OC(F)F)Nc1ccc2c(c1)C=CS(=O)(=O)O2
> 10000 nM | > 10000 nM | 80.4 nM | 399 nM | COc1ccc(/C=C/C(=O)Nc2ccc3c(c2)C=CS(=O)(=O)O3)c(F)c1
> 10000 nM | > 10000 nM | 682 nM | 604 nM | Cc1cc(=O)oc2cc(NC(=O)/C=C/c3ccc(F)cc3)ccc12
> 10000 nM | > 10000 nM | 43 nM | 411 nM | O=C(/C=C/c1cccc(F)c1)Nc1ccc2oc(=O)ccc2c1
> 10000 nM | > 10000 nM | 88 nM | 221 nM | O=C(/C=C/c1cccc(C(F)(F)F)c1)Nc1ccc2oc(=O)ccc2c1
> 10000 nM | > 10000 nM | 514 nM | 649 nM | Cc1cc(=O)oc2cc(NC(=O)/C=C/c3ccccc3)ccc12
> 10000 nM | > 10000 nM | 65.4 nM | 480 nM | O=C(/C=C/c1cccc(C(F)(F)F)c1)Nc1ccc2c(c1)C=CS(=O)(=O)O2
> 10000 nM | > 10000 nM | 87.4 nM | 446 nM | COc1ccc(/C=C/C(=O)Nc2ccc3oc(=O)ccc3c2)c(OC)c1
> 10000 nM | > 10000 nM | 384 nM | 394 nM | O=C(/C=C/c1ccccc1OC(F)F)Nc1ccc2oc(=O)ccc2c1
